Measured values taken from patent US8741906B2 (priority 2011, dated 2014).
Like-named read-outs stand apart in the source and are kept apart here.

Tests used:
human CB2 receptors = molecular target: T1, human CB2 receptors (Homo sapiens, UniProt P34972); assay: functional cAMP assay, human CB2; type: cell-based; details: CHO cells expressing human CB2, cAMP; read-out: human CB2 EC50
T1 construct: expressed in transfected cells; host or cells: CHO cells
Method in brief: (§1)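 CHO cells with human CB1 or CB2 were switched to Krebs Ringer bicarbonate buffer with 1 mM IBMX for 30 min at 30 °C, then given compound for 30 min at 30 °C. cAMP was measured by time-resolved FRET against a cAMP standard curve, and EC50 values were calculated.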

human CB1 receptors = molecular target: T2, human CB1 receptors (Homo sapiens, UniProt P21554); assay: functional cAMP assay, human CB1; type: cell-based
T2 construct: expressed in transfected cells; host or cells: CHO cells
Method in brief: as §1

[1] = CHO cells expressing human CB1, cAMP, read-out: human CB1 EC50

T2 sequence (P21554 whole entry): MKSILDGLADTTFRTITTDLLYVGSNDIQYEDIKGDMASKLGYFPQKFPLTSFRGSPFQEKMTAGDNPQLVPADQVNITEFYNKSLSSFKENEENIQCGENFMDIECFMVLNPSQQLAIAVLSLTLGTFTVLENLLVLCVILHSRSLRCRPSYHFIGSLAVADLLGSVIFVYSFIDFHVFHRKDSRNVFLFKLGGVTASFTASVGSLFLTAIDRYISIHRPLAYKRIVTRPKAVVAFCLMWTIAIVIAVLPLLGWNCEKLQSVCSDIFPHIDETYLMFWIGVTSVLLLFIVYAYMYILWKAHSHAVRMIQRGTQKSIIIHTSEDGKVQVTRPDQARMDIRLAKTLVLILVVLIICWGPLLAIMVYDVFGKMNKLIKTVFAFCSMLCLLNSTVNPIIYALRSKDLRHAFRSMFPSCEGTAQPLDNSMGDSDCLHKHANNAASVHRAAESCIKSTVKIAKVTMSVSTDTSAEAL
T1 sequence (P34972 whole entry): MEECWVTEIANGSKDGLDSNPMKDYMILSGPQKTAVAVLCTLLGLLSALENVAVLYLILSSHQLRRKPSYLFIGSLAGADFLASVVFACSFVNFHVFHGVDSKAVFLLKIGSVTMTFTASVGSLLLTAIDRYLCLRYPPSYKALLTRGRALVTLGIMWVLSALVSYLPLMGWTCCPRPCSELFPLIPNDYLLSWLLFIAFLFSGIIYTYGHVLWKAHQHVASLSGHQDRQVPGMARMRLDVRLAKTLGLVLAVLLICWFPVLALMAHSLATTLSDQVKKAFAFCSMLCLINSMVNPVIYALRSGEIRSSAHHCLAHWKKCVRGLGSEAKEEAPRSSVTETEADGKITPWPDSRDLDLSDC

| SMILES | EC50 (human CB2 receptors) | EC50 (human CB1 receptors; [1]) | EC50 (human CB1 receptors) |
| --- | --- | --- | --- |
| CC(C)(C)c1nc(N2CCC(F)(F)C2)c2nnn(Cc3cccnc3Cl)c2n1 [Example 97, 5-tert-Butyl-3-(2-chloro-pyridin-3-ylmethyl)-7-(3,3-difluoro-pyrrolidin-1-yl)-3H-[1,2,3]triazolo[4,5-c]pyrimidine] | 0.0001 µM | 0.0623 µM |  |
| Cc1nonc1Cn1nnc2c(N3CC[C@H](O)[C@@H]3CO)nc(C(C)(C)C)nc21 [Example 164, (2S,3S)-1-[5-tert-Butyl-3-(4-methyl-furazan-3-ylmethyl)-3H-[1,2,3]triazolo[4,5-d]pyrimidin-7-yl]-2-hydroxymethyl-pyrrolidin-3-ol] | 0.0008 µM | > 10 µM |  |
| Cc1nnc(Cn2nnc3c(N4CC[C@@](C)(O)C4)nc(C(C)(C)C)nc32)o1 [Example 225-b, (R)-1-(5-tert-butyl-3-((5-methyl-1,3,4-oxadiazol-2-yl)methyl)-3H-[1,2,3]triazolo[4,5-d]pyrimidin-7-yl)-3-methylpyrrolidin-3-ol] | 0.175 µM | > 10 µM |  |
| Cc1nonc1Cn1nnc2c(N3CC(F)(F)C(F)(F)C3)nc(C(C)(C)C)nc21 [Example 173, 5-tert-Butyl-3-(4-methyl-furazan-3-ylmethyl)-7-(3,3,4,4-tetrafluoro-pyrrolidin-1-yl)-3H-[1,2,3]triazolo[4,5-d]pyrimidine] | 0.0003 µM | > 10 µM |  |
| CC(C)(C)c1nc(N2CC[C@H](O)C2)c2nnn(Cc3ccccc3)c2n1 [Example 217, (3S)-1-(3-benzyl-5-tert-butyl-triazolo[4,5-d]pyrimidin-7-yl)pyrrolidin-3-ol] | 0.0033 µM | > 10 µM |  |
| CC(C)(C)c1nc(N2CCC(F)(F)C2)c2nnn(Cc3nc(Cl)ccc3Cl)c2n1 [Example 100, 5-tert-Butyl-3-(3,6-dichloro-pyridin-2-ylmethyl)-7-(3,3-difluoro-pyrrolidin-1-yl)-3H-[1,2,3]triazolo[4,5-d]pyrimidine] | 0.0001 µM | 0.11 µM |  |
| Cc1nnc(Cn2nnc3c(N4CC[C@](C)(O)C4)nc(C(C)(C)C)nc32)o1 [Example 225-a, (S)-1-(5-tert-butyl-3-((5-methyl-1,3,4-oxadiazol-2-yl)methyl)-3H-[1,2,3]triazolo[4,5-d]pyrimidin-7-yl)-3-methylpyrrolidin-3-ol] | 0.0291 µM | > 10 µM |  |
| CN(C)C1CCN(c2nc(C(C)(C)C)nc3c2nnn3Cc2ccccc2Cl)C1 (stereo not drawn) [Example 191, {1-[5-tert-Butyl-3-(2-chloro-benzyl)-3H-[1,2,3]triazolo[4,5-d]pyrimidin-7-yl]-pyrrolidin-3-yl}-dimethyl-amine] | 0.173 µM |  | > 10 µM |
| CC(C)(C)c1nc(N2CCC(F)(F)C2)c2nnn(Cc3ccc(Cl)cc3Cl)c2n1 [Example 68, 5-tert-Butyl-3-(2,4-dichloro-benzyl)-7-(3,3-difluoro-pyrrolidin-1-yl)-3H-[1,2,3]triazolo[4,5-d]pyrimidine] | 0.0007 µM | > 10 µM |  |
| CC(C)(C)c1nc(N2CC[C@H](O)[C@@H]2CO)c2nnn(Cc3cccnc3Cl)c2n1 [Example 172, (2S,3S)-1-[5-tert-Butyl-3-(2-chloro-pyridin-3-ylmethyl)-3H-[1,2,3]triazolo[4,5-d]pyrimidin-7-yl]-2-hydroxymethyl-pyrrolidin-3-ol] | 0.0041 µM | > 10 µM |  |
| CC(C)(C)c1nc(N2CCC(F)(F)C2)c2nnn(CCc3cccnc3)c2n1 [Example 121, 5-tert-Butyl-7-(3,3-difluoro-pyrrolidin-1-yl)-3-(2-pyridin-3-yl-ethyl)-3H-[1,2,3]triazolo[4,5-d]pyrimidine] | 0.0003 µM | > 10 µM |  |
| CC(C)(C)c1nc(N2CC[C@H](F)C2)c2nnn(Cc3ccccc3Cl)c2n1 [Example 36, 5-tert-Butyl-3-(2-chloro-benzyl)-7-((S)-3-fluoro-pyrrolidin-1-yl)-3H-[1,2,3]triazolo[4,5-d]pyrimidine] | 0.0006 µM | 0.432 µM |  |
